Data from ChEMBL document CHEMBL1201862, “PubChem BioAssay data set” (2004).
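Method: 48-hour compound exposure of cells in 96-well plates, five concentrations, linear interpolation of endpoints. Here, GI50 denotes the concentration required for 50% inhibition of growth.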 Calls of active or inactive are those of the source. Cut-off read from the data, not from the text of the source: active = GI50 up to about 1.1 µM and inactive = higher.

Columns and labels:
Test in all cases: NCI tumour cell line growth inhibition, 48 h
[1] = test system: UACC-62
[2] = test system: CAKI-1
[3] = test system: DMS-114
[4] = test system: OVCAR-4
[5] = test system: M19-MEL
[6] = test system: TK-10
[7] = test system: SF-268
[8] = test system: DLD-1
[9] = test system: DMS-273
[10] = test system: RXF 631
[11] = test system: EKVX
[12] = test system: COLO 205
[13] = test system: U-251
[14] = test system: SNB-78
[15] = test system: SNB-75
[16] = test system: 786-0
[17] = test system: CCRF-CEM
[18] = test system: UO-31
[19] = test system: HT-29
[20] = test system: Malme-3M
[21] = test system: SNB-19
[22] = test system: ACHN
[23] = test system: HCT-116
[24] = test system: HOP-18
[25] = test system: SW-620
[26] = test system: KM12
[27] = test system: NCI-H23
[28] = test system: HCT-15
[29] = test system: SR
[30] = test system: SK-MEL-5
[31] = test system: SK-MEL-28
[32] = test system: OVCAR-3
[33] = test system: HCC 2998
[34] = test system: SF-295
[35] = test system: OVCAR-5
[36] = test system: HOP-62
[37] = test system: LXFL 529
[38] = test system: RPMI-8226
[39] = test system: SK-OV-3
[40] = test system: KM-20L2
[41] = test system: IGROV-1
[42] = test system: A498
[43] = test system: HL-60
[44] = test system: NCI-H522
[45] = test system: SK-MEL-2
[46] = test system: A549
[47] = test system: K562
[48] = test system: MOLT-4
[49] = test system: UACC-257
[50] = test system: RXF 393
[51] = test system: LOX IMVI
[52] = test system: NCI-H226
[53] = test system: NCI-H460
[54] = test system: HOP-92
[55] = test system: SN12C
[56] = test system: M14
[57] = test system: SF-539
[58] = test system: OVCAR-8

**Q.** What does the source list for `Cc1ccc(NC(=O)/C(Cl)=C(/Cl)C(=O)O)cc1`?
**A.** GI50 [1]: 15.9 µM (inactive); GI50 [2]: 17.3 µM (inactive); GI50 [3]: 20 µM (inactive); GI50 [4]: 18.2 µM (inactive); GI50 [5]: 16 µM (inactive); GI50 [6]: 18.7 µM (inactive); GI50 [7]: 23 µM (inactive); GI50 [8]: 16.4 µM (inactive); GI50 [9]: 22.1 µM (inactive); GI50 [10]: 24.4 µM (inactive); GI50 [11]: 16.1 µM (inactive); GI50 [12]: 6.93 µM (inactive); GI50 [13]: 17.1 µM (inactive); GI50 [14]: 30.1 µM (inactive); GI50 [15]: 17.7 µM (inactive); GI50 [16]: 17.3 µM (inactive); GI50 [17]: 2.12 µM (inactive); GI50 [18]: 17.8 µM (inactive); GI50 [19]: 18.3 µM (inactive); GI50 [20]: 15.6 µM (inactive); GI50 [21]: > 100 µM (inactive); GI50 [22]: 16.5 µM (inactive); GI50 [23]: 15 µM (inactive); GI50 [24]: 19.1 µM (inactive); GI50 [25]: 15.1 µM (inactive); GI50 [26]: 18.7 µM (inactive); GI50 [27]: 17.5 µM (inactive); GI50 [28]: 15.6 µM; GI50 [29]: 18.2 µM (inactive); GI50 [30]: 28.4 µM (inactive); GI50 [31]: 18.9 µM (inactive); GI50 [32]: 18.1 µM (inactive); GI50 [33]: 19.7 µM (inactive); GI50 [34]: 30.2 µM (inactive); GI50 [35]: 21 µM (inactive); GI50 [36]: 71.4 µM (inactive); GI50 [37]: 11.9 µM (inactive); GI50 [38]: 14.8 µM (inactive); GI50 [39]: 18.8 µM (inactive); GI50 [40]: 22.4 µM (inactive); GI50 [41]: 29.6 µM (inactive); GI50 [42]: 82.2 µM (inactive); GI50 [43]: 1.64 µM (inactive); GI50 [44]: 1.9 µM (inactive); GI50 [45]: 14.6 µM (inactive); GI50 [46]: 69.8 µM (inactive); GI50 [47]: 3.57 µM (inactive); GI50 [48]: 11.5 µM (inactive); GI50 [49]: 22 µM (inactive); GI50 [50]: 31 µM (inactive); GI50 [51]: 17.1 µM (inactive); GI50 [52]: 31.8 µM (inactive); GI50 [53]: > 100 µM (inactive); GI50 [54]: 18.2 µM (inactive); GI50 [55]: 18.5 µM (inactive); GI50 [56]: 15.2 µM (inactive)

**Q.** How did the GI50 [1] turn out when `Cc1cc(Br)ccc1/N=N/C1C(=O)ON=C1c1ccccc1` (stereo unspecified) was run?
**A.** > 100 µM (inactive)

**Q.** What about the GI50 [3] of the same compound?
**A.** 65.6 µM (inactive)

**Q.** And the GI50 [4]?
**A.** > 100 µM (inactive)

**Q.** And the GI50 [5]?
**A.** 67.6 µM (inactive)

**Q.** What about the GI50 [6] of the same compound?
**A.** 69.3 µM (inactive)

**Q.** And the GI50 [7]?
**A.** > 100 µM (inactive)

**Q.** And the GI50 [8]?
**A.** 90.2 µM (inactive)

**Q.** And the GI50 [9]?
**A.** > 100 µM (inactive)

**Q.** What about the GI50 [57] of the same compound?
**A.** > 100 µM (inactive)

**Q.** And the GI50 [10]?
**A.** 51.6 µM (inactive)

**Q.** What about the GI50 [11] of the same compound?
**A.** 67 µM (inactive)

**Q.** What about the GI50 [12] of the same compound?
**A.** 16 µM (inactive)

**Q.** What about the GI50 [13] of the same compound?
**A.** > 100 µM (inactive)

**Q.** What about the GI50 [14] of the same compound?
**A.** > 100 µM (inactive)

**Q.** And the GI50 [15]?
**A.** > 100 µM (inactive)

**Q.** And the GI50 [16]?
**A.** > 100 µM (inactive)

**Q.** And the GI50 [18]?
**A.** 46.9 µM (inactive)

**Q.** And the GI50 [19]?
**A.** 47.1 µM (inactive)

**Q.** What about the GI50 [20] of the same compound?
**A.** > 100 µM (inactive)

**Q.** What about the GI50 [21] of the same compound?
**A.** > 100 µM (inactive)

**Q.** And the GI50 [22]?
**A.** 63.4 µM (inactive)

**Q.** What about the GI50 [23] of the same compound?
**A.** 46.5 µM (inactive)

**Q.** What about the GI50 [24] of the same compound?
**A.** > 100 µM (inactive)

**Q.** And the GI50 [25]?
**A.** > 100 µM (inactive)

**Q.** What about the GI50 [26] of the same compound?
**A.** > 100 µM (inactive)

**Q.** What about the GI50 [27] of the same compound?
**A.** > 100 µM (inactive)

**Q.** What about the GI50 [29] of the same compound?
**A.** 48 µM (inactive)

**Q.** What about the GI50 [30] of the same compound?
**A.** 53.5 µM (inactive)

**Q.** What about the GI50 [31] of the same compound?
**A.** > 100 µM (inactive)

**Q.** And the GI50 [32]?
**A.** > 100 µM (inactive)

**Q.** What about the GI50 [33] of the same compound?
**A.** 26.5 µM (inactive)

**Q.** And the GI50 [34]?
**A.** > 100 µM (inactive)

**Q.** And the GI50 [35]?
**A.** > 100 µM (inactive)

**Q.** What about the GI50 [36] of the same compound?
**A.** > 100 µM (inactive)

**Q.** What about the GI50 [37] of the same compound?
**A.** 69.5 µM (inactive)

**Q.** And the GI50 [38]?
**A.** 28.4 µM (inactive)

**Q.** What about the GI50 [39] of the same compound?
**A.** > 100 µM (inactive)

**Q.** And the GI50 [40]?
**A.** 55.2 µM (inactive)

**Q.** And the GI50 [41]?
**A.** > 100 µM (inactive)

**Q.** What about the GI50 [42] of the same compound?
**A.** 35 µM (inactive)

**Q.** What about the GI50 [43] of the same compound?
**A.** 32.1 µM (inactive)

**Q.** What about the GI50 [44] of the same compound?
**A.** 40.6 µM (inactive)

**Q.** What about the GI50 [45] of the same compound?
**A.** > 100 µM (inactive)

**Q.** What about the GI50 [46] of the same compound?
**A.** 25.7 µM (inactive)

**Q.** What about the GI50 [47] of the same compound?
**A.** 45 µM (inactive)

**Q.** And the GI50 [48]?
**A.** 31.3 µM (inactive)

**Q.** What about the GI50 [49] of the same compound?
**A.** > 100 µM (inactive)

**Q.** What about the GI50 [50] of the same compound?
**A.** 52.4 µM (inactive)

**Q.** And the GI50 [51]?
**A.** 63.4 µM (inactive)

**Q.** What about the GI50 [52] of the same compound?
**A.** > 100 µM (inactive)

**Q.** What about the GI50 [53] of the same compound?
**A.** 55 µM (inactive)

**Q.** What about the GI50 [54] of the same compound?
**A.** > 100 µM (inactive)

**Q.** And the GI50 [55]?
**A.** > 100 µM (inactive)

**Q.** And the GI50 [58]?
**A.** > 100 µM (inactive)

**Q.** What about the GI50 [56] of the same compound?
**A.** > 100 µM (inactive)
